In US20080293699A1, “Inhibitors of thapsigargin-induced cell death” (priority 2007, published 2008):
“Also recorded” adds a separate entry of the source.

What was measured:
[1] = tested on: differentiated CSM14.1 cells; assay: ATP content assay, thapsigargin-treated differentiated CSM14.1 cells; type: cell-based, rat
Procedure: Of the 26 compounds shown in Table 9, 16 were subsequently confirmed to protect differentiated CSM14.1 cells from TG-induced cell death. For these assays, CSM14.1 cells were differentiated by culture in 2% FBS for 7 days at non-permissive temperature of 39° C. […] CSM14.1 cells were plated at 1,500 cells per well in 96-well plates, and cultured overnight at 32° C. (permissive temperature; FIG. 14, left) or at 39° C. (non-permissive temperature, FIG. 14, right) for 7 days. […] ATP content was measured, and data were expressed as a percentage of control cells treated only with 1% DMSO (mean ±SD; n=3). Two percent FBS was used during differentiation, but all assays were performed in 10% FBS.
(§1) For PC12, cells were stimulated with 20 ng/ml NGF for five days; for C17.2, cells were stimulated with serum reduction, and 1% N2 incubation for three days; for CSM14.1, cells were cultured at 39° C. for 5-7 days.
CSM14.1 cells were plated at 1,500 cells per well in 96-well plates and cultured at 39° C. (non-permissive temperature) for 7 days. […] ATP content was measured and data were expressed as a percentage of control cells treated with only 1% DMSO.

CSM14.1 cells = assay: Pathway selectivity: cell death induced by VP16, TNF plus cycloheximide or staurosporine in CSM14.1 cells; type: cell-based, rat; conditions: 25 μM, ATP content where stated
Procedure: The selectivity of compounds with respect to suppression of cell death induced by ER stress was determined by treating undifferentiated CSM14.1 cells with a variety of agents that induce apoptosis via the ER stress pathway (thapsigargin, tunicamycin), the mitochondrial pathway (VP16) or the death receptor pathway (TNF+cycloheximide [CHX]). Of the 26 hit compounds tested, 19 reduced cell death induced by thapsigargin and tunicamycin but not VP16 or TNF/CHX.
For the experiments shown in FIG. 18, undifferentiated CSM 14.1 cells were plated at 3,000 cells per well in 96-well plates (for the ATP assay) or at 1×10^4 cells per well in 24-well plates (for flow cytometry). The next day, cells were treated with DMSO (0.5%) or hit compounds 25 μM of a compound with 0.5% DMSO final concentration) for two hours, followed by treatment with various cell death-inducing reagents, including 15 μM Thapsigargin (TG) for 24 hrs, 10 μg/mL tunicamycin (TU) for 72 hrs, 2.5 μM staurosporine (STS) for 24 hrs, 50 μM VP16 for 48 hrs, or 30 ng/mL TNF plus 10 μg/mL cyclohexamide (CHX) for 24 hrs. Cellular ATP content was measured for staurosporine samples and TNF/CHX samples, normalizing data relative to cells treated with DMSO alone (the control) and presenting as a percentage of control. For measuring cell death resulting from treatment with tunicamycin and VP16, flow cytometry was used. All assays were performed in triplicate (mean ±SD).

[2] = tested on: PPC1, human prostate cancer; assay: Thapsigargin-induced death of PPC1 cells, ATP content assay; type: cell-based
Procedure: (§2) In addition to CSM14.1 cells, when tested at 25 μM, Compound 5962123 protected by >50% against thapsigargin-induced death of several tumor cell lines (HeLa human cervical cancer, SW1 melanoma cell, PPC1, human prostate cancer), mouse neural stem cell C17.2 (both differentiated [neuronal phenotype] and non-differentiated [stem cell phenotype]) as determined by ATP content assay, and primary rat cortical neurons as determined by microscopy assay measuring the percentage of NeuN-immunopositive cells with either normal or apoptotic nuclear morphology (Hoechst dye staining).
as §1

SW1 melanoma cell = assay: Thapsigargin-induced death of SW1 cells, ATP content assay; type: cell-based, human
Procedure: as §2, §1

[3] = thapsigargin 15 μM, ATP content, compound ≦25 μM

Structure (SMILES): CCN(CC)c1ccc(C2Nc3ccccc3NC3=C2C(=O)CC(c2ccccc2)C3)cc1 (centres unmarked) [Compound 5962123, 6-(4-diethylaminophenyl)-9-phenyl-5,6,8,9,10,11-hexahydrobenzo[c][1,5]benzodiazepin-7-one]
- Protection of differentiated CSM14.1 cells from thapsigargin-induced death ([1]; compound 25 μM with 10 μM thapsigargin, Salubrinal 100 μM): confirmed
- Cytoprotective activity, CSM 14.1 diff (Result) ([1]; thapsigargin 15 μM, compound ≦25 μM): + (+indicates >50% rescue of cell viability relative to untreated cells not exposed to thapsigargin at compound concentration of ≦25 μM)
- Inhibition of cell death induced by TNF-α plus cycloheximide (CSM14.1 cells): does not inhibit; also recorded: not active
- Inhibition of cell death induced by VP-16 (CSM14.1 cells): does not inhibit; also recorded: not active
- Inhibition of cell death induced by staurosporine (CSM14.1 cells): does not inhibit; also recorded: not active
- Protection against thapsigargin-induced death, PPC1 ([2]; 25 μM, ATP content assay): > 50%
- Cytoprotective activity in thapsigargin-treated PPC-1 ([2]; ATP content assay): demonstrated
- Cytoprotective activity, PPC1 (Result) [2, 3]: + (+indicates >50% rescue of cell viability relative to untreated cells not exposed to thapsigargin at compound concentration of ≦25 μM)
- Protection against thapsigargin-induced death, SW1 (SW1 melanoma cell; 25 μM, ATP content assay): > 50%
- Cytoprotective activity in thapsigargin-treated SW1 (SW1 melanoma cell; ATP content assay): demonstrated
- Cytoprotective activity, SW1 (Result) (SW1 melanoma cell; [3]): + (+indicates >50% rescue of cell viability relative to untreated cells not exposed to thapsigargin at compound concentration of ≦25 μM)
